Reference: ChEMBL document CHEMBL1155622, “New acetylenic compounds from the stony coral Montipora sp” (2000)
Values after ≈ are worked out from the molar mass of the structure shown.

Columns and labels:
Format in all cases: functional
Conditions in all cases: read-out: ED50 (the source's name)
A549 = test: Cytotoxicity against human A549 cells
SK-OV-3 = test: Cytotoxicity against human SK-OV-3 cells
SK-MEL-2 = test: Cytotoxicity against human SK-MEL-2 cells
XF498 = test: Cytotoxicity against human XF498 cells
HCT-15 = test: Cytotoxicity against human HCT15 cells

Row | SMILES | EC50 (A549) | EC50 (SK-OV-3) | EC50 (SK-MEL-2) | EC50 (XF498) | EC50 (HCT-15)
1 | C=CCCCCCCCC#CC#C/C=C\C(C)=O [MONTIPORYINE D] | > 50 µg/mL | 45.1 µg/mL (≈ 186 µM) | 43.1 µg/mL (≈ 178 µM) | > 50 µg/mL | > 50 µg/mL
2 | CCCCCCCC#CC#CC1=CC(=O)NCCC1 [MONTIPORYINE E] | > 50 µg/mL | > 50 µg/mL | > 50 µg/mL | > 50 µg/mL | > 50 µg/mL
3 | CCCCCCCC#CC#CC1CC(=O)C=C(C)C1 (stereo not given) [MONTIPORYINE F] | > 50 µg/mL | 29.2 µg/mL (≈ 114 µM) | 36.7 µg/mL (≈ 143 µM) | 31.3 µg/mL (≈ 122 µM) | 45.1 µg/mL (≈ 176 µM)
4 | CCCCCCCC#CC#C/C=C/C(C)=O [MONTIPORYNE A] | > 50 µg/mL | 3.2 µg/mL (≈ 14.8 µM) | 1.4 µg/mL (≈ 6.47 µM) | 1.9 µg/mL (≈ 8.78 µM) | 3.7 µg/mL (≈ 17.1 µM)
5 | CCCCCCCC#CC#C/C=C\C(C)=O [MONTIPORYNE B] | > 50 µg/mL | 25.9 µg/mL (≈ 120 µM) | 42.6 µg/mL (≈ 197 µM) | > 50 µg/mL | > 50 µg/mL
6 | C=CCCCCCCCC#CC#C/C=C/C(C)=O [MONTIPORYNE C] | > 50 µg/mL | 2.5 µg/mL (≈ 10.3 µM) | 1.5 µg/mL (≈ 6.19 µM) | 3.2 µg/mL (≈ 13.2 µM) | 5.2 µg/mL (≈ 21.5 µM)
